Experimental data published in doi:10.1101/2025.04.13.648610v1, “Catalytic Mechanism and Differential Alarmone Regulation of a Conserved Stringent Nucleosidase” (biorxiv, 2025).
Residue numbers refer to the chain shown, from its start.

Key:
Assay type in all cases: binding
PpnN (previously YgdH) [1] = biological target: T1, PpnN (previously YgdH) (Escherichia coli, UniProt P0ADR8); test: X-ray crystal structure
T1 construct: full length, N-terminal His6 tag, plasmid pCA24N-ppnN, expressed in E. coli BL21(DE3) ppnN::kan; homotetramer; domains PAG1 1-150, catalytic 151-329, PAG2 330-454
T1 sequence (P0ADR8 1-454): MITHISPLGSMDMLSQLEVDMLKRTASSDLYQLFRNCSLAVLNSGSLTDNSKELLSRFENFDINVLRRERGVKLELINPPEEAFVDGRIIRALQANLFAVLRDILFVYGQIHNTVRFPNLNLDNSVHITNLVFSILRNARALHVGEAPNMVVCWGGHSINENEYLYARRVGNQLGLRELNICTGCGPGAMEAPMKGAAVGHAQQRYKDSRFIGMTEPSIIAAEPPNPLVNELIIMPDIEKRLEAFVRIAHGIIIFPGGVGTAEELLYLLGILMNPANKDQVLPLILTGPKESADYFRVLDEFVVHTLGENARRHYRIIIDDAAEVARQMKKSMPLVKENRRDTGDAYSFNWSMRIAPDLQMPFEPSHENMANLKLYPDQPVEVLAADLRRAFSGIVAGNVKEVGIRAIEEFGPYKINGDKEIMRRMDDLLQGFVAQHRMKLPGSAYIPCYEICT

PpnN (previously YgdH) [2] = biological target: T2, PpnN (previously YgdH) (Escherichia coli, UniProt P0ADR8, E264A); test: X-ray crystal structure […] Å
T2 construct: full length, N-terminal His6 tag, plasmid pCA24N-ppnN, expressed in E. coli BL21(DE3) ppnN::kan; homotetramer; domains PAG1 1-150, catalytic 151-329, PAG2 330-454
T2 sequence (P0ADR8 1-454 E264A): T1 sequence (P0ADR8 1-454) with E264A

PpnN (previously YgdH) [3] = biological target: T1, PpnN (previously YgdH); test: X-ray crystal structure […] Å

Nc1nc2[nH]cnc2c(=O)[nH]1 [guanine]
X-ray crystal structure (PpnN (previously YgdH) [1]; active sites of the three open monomers, carried over, GMP not added, modelled into density): guanine into the smaller densities

O=P(O)(O)OC[C@H]1OC(O)[C@H](O)[C@@H]1O (stereo partly shown) [ribose 5-phosphate]
X-ray crystal structure (PpnN (previously YgdH) [1]; active site of the partially open monomer, carried over, GMP not added, modelled into density): ribose-5-phosphate (R5P) into the bilobed density
X-ray crystal structure 3.5 Å (PpnN (previously YgdH) [2]; active site, four of four, from GMP added to the crystallisation): likely corresponding to the product, R5P

Nc1nc2c(ncn2[C@@H]2O[C@H](COP(=O)(O)OP(=O)(O)OP(=O)(O)O)[C@@H](OP(=O)(O)OP(=O)(O)O)[C@H]2O)c(=O)[nH]1 [pppGpp]
X-ray crystal structure (PpnN (previously YgdH) [1]; allosteric alarmone site at dimer interface, three of four sites): pppGpp was bound to three out of four PpnN molecules
X-ray crystal structure 3.5 Å (PpnN (previously YgdH) [2]; allosteric alarmone site at dimer interface, four of four sites, co-crystallised with GMP): all four alarmone sites are occupied by pppGpp

Nc1nc2c(ncn2[C@@H]2O[C@H](COP(=O)(O)OP(=O)(O)O)[C@@H](OP(=O)(O)OP(=O)(O)O)[C@H]2O)c(=O)[nH]1 [ppGpp]
X-ray crystal structure 3.4 Å (PpnN (previously YgdH) [3]; allosteric alarmone site at dimer interface, four of four sites, with 9-deaza-GMP): All four canonical alarmone binding sites are occupied by ppGpp

Nc1nc2c([C@@H]3O[C@H](COP(=O)(O)O)[C@@H](O)[C@H]3O)c[nH]c2c(=O)[nH]1 [9-deaza-GMP]
X-ray crystal structure 3.4 Å (PpnN (previously YgdH) [3]; second dimer interface (two sites per tetramer), not the active site, with ppGpp): an elongated electron density was found into which 9dG could be modelled
